Each structure is given as a SMILES string.

In general, EC50 refers to the concentration needed to bring the measured effect to its halfway point.

For the first assay, the target named is T1, apelin receptor (APJ) (Homo sapiens, UniProt P35414).
T1 sequence (P35414 1-380): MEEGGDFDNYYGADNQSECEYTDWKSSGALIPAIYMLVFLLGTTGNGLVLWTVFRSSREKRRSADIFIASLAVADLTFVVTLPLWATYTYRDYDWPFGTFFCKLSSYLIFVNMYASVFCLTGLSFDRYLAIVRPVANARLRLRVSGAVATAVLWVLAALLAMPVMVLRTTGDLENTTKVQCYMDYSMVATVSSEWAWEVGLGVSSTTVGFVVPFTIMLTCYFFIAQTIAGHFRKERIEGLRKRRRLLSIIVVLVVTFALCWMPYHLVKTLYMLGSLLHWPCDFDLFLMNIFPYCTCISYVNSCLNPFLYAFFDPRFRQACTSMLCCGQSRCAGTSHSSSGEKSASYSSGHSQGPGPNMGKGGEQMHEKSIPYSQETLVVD
Kind of assay: In vitro apelin agonist activity (methods of Giddings et al., Apelin-13 as positive control). Format: cell-based. To be noted: EC50 (nM) Ave, in vitro apelin agonist activity, methods of Giddings et al., Apelin-13 as positive control. An excerpt:
Characterization of the Apelin Agonist Activity of the Compounds
1:39-47, the contents of which are hereby incorporated by reference in its entirety. Using the methods described in Giddings et al. and Apelin-13 as a positive control.
With `COc1cccc(OC)c1-c1cc(C(=O)N[C@@H](CCC2CCCCC2)CC(=O)O)nn1C1CCCCCCC1` [compound 647, (3S)-5-cyclohexyl-3-{[1-cyclooctyl-5-(2,6-dimethoxyphenyl)-1H-pyrazol-3-yl]formamido}pentanoic acid], the 50% effective concentration (EC50) is greater than 10000 nM.

The same assay, now with this note: in vitro apelin agonist activity, methods of Giddings et al., Apelin-13 as positive control; read-out: EC50 (nM) Ave.
Consider `O=C(O)C[C@H](CCN1C[C@@H](F)[C@H](F)C1)NC(=O)c1cc(-c2ccccc2C(F)(F)F)n(C2CCCC2)n1` [compound 631, (3S)-3-({1-cyclopentyl-5-[2-(trifluoromethyl)phenyl]-1H-pyrazol-3-yl}formamido)-5-[(3R,4R)-3,4-difluoropyrrolidin-1-yl]pentanoic acid], for which the EC50 turned out to be 75 nM. For `CC(C(=O)O)[C@H](CCN1CC2C(C1)C2(F)F)NC(=O)c1cc(-c2ccccc2C(F)(F)F)n(C2CCCC2)n1` (stereo partly drawn) [compound 635, (2R,3S)-3-({1-cyclopentyl-5-[2-(trifluoromethyl)phenyl]-1H-pyrazol-3-yl}formamido)-5-{6,6-difluoro-3-azabicyclo[13.1.0]hexan-3-yl}-2-methylpentanoic acid], the EC50 was 13 nM. Consider `CC(C(=O)NC1CCC1)[C@H](CCN1CC2C(C1)C2(F)F)NC(=O)c1cc(-c2ccccc2C(F)(F)F)n(C2CCCC2)n1` (stereo partly drawn) [compound 636, (3S)-N-cyclobutyl-3-({1-cyclopentyl-5-[2-(trifluoromethyl)phenyl]-1H-pyrazol-3-yl}formamido)-5-{6,6-difluoro-3-azabicyclo[3.1.0]hexan-3-yl}-2-methylpentanamide], for which the EC50 was 158 nM. Turning to `CC(c1nnn[nH]1)[C@H](CCN1CC2C(C1)C2(F)F)NC(=O)c1cc(-c2ccccc2C(F)(F)F)n(C2CCCC2)n1` (stereo partly drawn) [compound 637, 1-cyclopentyl-N-[(3S)-1-{6,6-difluoro-3-azabicyclo[3.1.0]hexan-3-yl}-4-(1H-1,2,3,4-tetrazol-5-yl)pentan-3-yl]-5-[2-(trifluoromethyl)phenyl]-1H-pyrazole-3-carboxamide], the EC50 was found to be 21 nM. Regarding `C[C@@H](c1nnn[nH]1)[C@H](CCN1CC2C(C1)C2(F)F)NC(=O)c1cc(-c2ccccc2C(F)(F)F)n(C2CCCC2)n1` (stereo partly drawn) [compound 638, 1-cyclopentyl-N-[(3S,4R)-1-{6,6-difluoro-3-azabicyclo[3.1.0]hexan-3-yl}-4-(1H-1,2,3,4-tetrazol-5-yl)pentan-3-yl]-5-[2-(trifluoromethyl)phenyl]-1H-pyrazole-3-carboxamide], the EC50 worked out at 14 nM. Still for that read-out and setting: for `O=C(O)C[C@H](CCN1CC(F)CC(F)C1)NC(=O)c1cc(-c2ccccc2C(F)(F)F)n(C2CCCC2)n1` (stereo partly drawn) [compound 639, (3S)-3-({1-cyclopentyl-5-[2-(trifluoromethyl)phenyl]-1H-pyrazol-3-yl}formamido)-5-(3,5-difluoropiperidin-1-yl)pentanoic acid] the value was 40 nM; for `O=C(N[C@@H](CCN1CCCC(F)(F)C1)Cc1nnn[nH]1)c1cc(-c2ncccc2C(F)(F)F)n(C2CCCC2)n1` [compound 641], 27 nM.

In the case of `O=C(O)C[C@H](CCN1C(=O)CCC1=O)NC(=O)c1cc(-c2ccccc2C(F)(F)F)n(C2CCCC2)n1` [compound 643, (3S)-3-({1-cyclopentyl-5-[2-(trifluoromethyl)phenyl]-1H-pyrazol-3-yl}formamido)-5-(2,5-dioxopyrrolidin-1-yl)pentanoic acid], the EC50 was 182 nM.

Turning to `COc1cccc(OC)c1-c1cc(C(=O)N[C@@H](CCC2CCCCC2)CC(=O)O)nn1CC1CCCCC1` [compound 648], the EC50 was greater than 10000 nM.

Take `CCC(CC)n1nc(C(=O)N[C@@H](CCC2CCCCC2)CC(=O)O)cc1-c1c(OC)cccc1OC` [compound 649, (3S)-5-cyclohexyl-3-{[5-(2,6-dimethoxyphenyl)-1-(pentan-3-yl)-1H-pyrazol-3-yl]formamido}pentanoic acid]: the EC50 is greater than 10000 nM.

The record behind these values is patent US11535630B2, “Apelin receptor (APJ) agonists and uses thereof” (Research Triangle Institute, priority 2015, dated 2022).
